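Results reflect a 48-hour exposure of cells in 96-well plates to compound at five concentrations. GI50: concentration for 50% inhibition of growth.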 Calls of active or inactive are those of the source. No stated cut-off is given here; in the data, active = GI50 up to about 1.1 µM and inactive = higher.
Columns and labels:
Experiment in all cases: NCI tumour cell line growth inhibition, 48 h
A549 = system: A549
CAKI-1 = system: CAKI-1
EKVX = system: EKVX
HOP-62 = system: HOP-62
HT-29 = system: HT-29
K562 = system: K562
LOX IMVI = system: LOX IMVI
M14 = system: M14
MCF7 = system: MCF7
MDA-MB-231 = system: MDA-MB-231
OVCAR-4 = system: OVCAR-4
OVCAR-5 = system: OVCAR-5
OVCAR-8 = system: OVCAR-8
RPMI-8226 = system: RPMI-8226
SF-539 = system: SF-539
SK-MEL-5 = system: SK-MEL-5
SK-OV-3 = system: SK-OV-3
SNB-75 = system: SNB-75
UACC-257 = system: UACC-257
NCI-H522 = system: NCI-H522

SMILES | GI50 (A549) | GI50 (CAKI-1) | GI50 (EKVX) | GI50 (HOP-62) | GI50 (HT-29) | GI50 (K562) | GI50 (LOX IMVI) | GI50 (M14) | GI50 (MCF7) | GI50 (MDA-MB-231) | GI50 (OVCAR-4) | GI50 (OVCAR-5) | GI50 (OVCAR-8) | GI50 (RPMI-8226) | GI50 (SF-539) | GI50 (SK-MEL-5) | GI50 (SK-OV-3) | GI50 (SNB-75) | GI50 (UACC-257) | GI50 (NCI-H522)
COC(=O)CP1(=O)OC2C(C3CCC2(C)C3(C)C)N1c1cc(C(F)(F)F)cc(C(F)(F)F)c1 (stereo not drawn) | 30 µM (inactive) | 24.9 µM (inactive) | 30.5 µM (inactive) | 31.2 µM (inactive) | 26.1 µM (inactive) | 19.5 µM (inactive) | 22.4 µM (inactive) | 32.3 µM (inactive) | > 100 µM (inactive) | 20.6 µM (inactive) | 13.5 µM (inactive) | 25.3 µM (inactive) | 36.1 µM (inactive) | 15.9 µM (inactive) | 21.9 µM (inactive) | 36.3 µM (inactive) | 33.4 µM (inactive) | 15.7 µM (inactive) | 32.8 µM (inactive) | 
C=CCC1C2CCC(O[Si](C(C)C)(C(C)C)C(C)C)(C(C(=O)OC)C2)C1O (stereo not drawn) | 32.9 µM (inactive) | > 100 µM (inactive) | 22.4 µM (inactive) | > 100 µM (inactive) | 53.7 µM (inactive) | 71.9 µM (inactive) |  | 94.8 µM (inactive) | 35.4 µM (inactive) | > 100 µM (inactive) | > 100 µM (inactive) | > 100 µM (inactive) | > 100 µM (inactive) | 72.6 µM (inactive) | > 100 µM (inactive) | 53 µM (inactive) | > 100 µM (inactive) | 71.1 µM (inactive) | 38.3 µM (inactive) | 
CN(Cc1cnc2c(N)nc(N)nc2n1)c1ccc(Cl)cc1 |  | > 100 µM (inactive) | > 100 µM (inactive) | 39.3 µM (inactive) |  | > 100 µM (inactive) |  | 73.8 µM (inactive) | 95.5 µM (inactive) | > 100 µM (inactive) |  | > 100 µM (inactive) | 21.5 µM (inactive) | > 100 µM (inactive) | 24.3 µM (inactive) | > 100 µM (inactive) | 26.2 µM (inactive) | 12.5 µM (inactive) | 78.5 µM (inactive) | 
COc1ccc(/C=N/NC(=O)c2ccccc2Nc2ccccc2C(=O)N/N=C/c2ccc(OC)cc2)cc1 | > 100 µM (inactive) | > 100 µM (inactive) | > 100 µM (inactive) | > 100 µM (inactive) | > 100 µM (inactive) | > 100 µM (inactive) | > 100 µM (inactive) | > 100 µM (inactive) | > 100 µM (inactive) | 65.6 µM (inactive) | > 100 µM (inactive) | > 100 µM (inactive) | > 100 µM (inactive) | > 100 µM (inactive) |  | > 100 µM (inactive) | > 100 µM (inactive) | > 100 µM (inactive) | > 100 µM (inactive) | 
Brc1ccc2c(-c3csc(-c4c[nH]c5cc(Br)ccc45)n3)c[nH]c2c1 | 19.5 µM (inactive) | 43.6 µM (inactive) | 35.3 µM (inactive) | 37.2 µM (inactive) | 15.8 µM (inactive) | 4.75 µM (inactive) | 20.9 µM (inactive) | 17.7 µM (inactive) | 11.8 µM (inactive) | 21 µM (inactive) | 31 µM (inactive) | 26.6 µM (inactive) | 21 µM (inactive) | 17.6 µM (inactive) | 19.6 µM (inactive) | 42.2 µM (inactive) | 18.5 µM (inactive) | 25.1 µM (inactive) | > 65.9 µM (inactive) | 
COc1cc(C(=O)C2C(=O)c3ccccc3C2C2(O)c3ccccc3CC2C(O)c2cc(OC)c(OC)c(OC)c2)cc(OC)c1OC (stereo not drawn) | > 100 µM (inactive) | > 100 µM (inactive) | > 100 µM (inactive) | 17.6 µM (inactive) | > 100 µM (inactive) | > 100 µM (inactive) | > 100 µM (inactive) | > 100 µM (inactive) | > 100 µM (inactive) | 94.2 µM (inactive) | > 100 µM (inactive) | > 100 µM (inactive) | 62.4 µM (inactive) | 15.2 µM (inactive) | 37.2 µM (inactive) | > 100 µM (inactive) | 32.1 µM (inactive) | 20.3 µM (inactive) | > 100 µM (inactive) | 
CC(=O)O[C@H]1CN(S(=O)(=O)c2ccc(C)cc2)C[C@@H]1C1CCCCC1 |  | 45.8 µM (inactive) | 17 µM (inactive) | 35.8 µM (inactive) | 24.4 µM (inactive) | 32.9 µM (inactive) | 21.6 µM (inactive) | 17.7 µM (inactive) | 20.8 µM (inactive) | 51.4 µM (inactive) | 31.9 µM (inactive) | 39 µM (inactive) | 22.7 µM (inactive) | 33.1 µM (inactive) | < 0.01 µM (active) | 10.6 µM (inactive) | 43.7 µM (inactive) | 24.9 µM (inactive) | 18 µM (inactive) | 
CSc1nn(C)cc2ncnc1-2 | > 100 µM (inactive) | > 100 µM (inactive) | > 100 µM (inactive) | > 100 µM (inactive) | > 100 µM (inactive) | > 100 µM (inactive) |  | > 100 µM (inactive) | > 100 µM (inactive) | > 100 µM (inactive) |  | > 100 µM (inactive) | > 100 µM (inactive) | > 100 µM (inactive) | > 100 µM (inactive) | > 100 µM (inactive) |  | 0.206 µM (active) | > 100 µM (inactive) | 
Cn1cnc(N2CCCC2)c(C#N)c1=S | > 100 µM (inactive) | 35.9 µM (inactive) | 94.4 µM (inactive) | > 100 µM (inactive) | > 100 µM (inactive) | > 100 µM (inactive) | > 100 µM (inactive) | > 100 µM (inactive) | > 100 µM (inactive) | > 100 µM (inactive) | > 100 µM (inactive) | > 100 µM (inactive) | > 100 µM (inactive) | > 100 µM (inactive) | > 100 µM (inactive) | > 100 µM (inactive) |  |  | > 100 µM (inactive) | > 100 µM (inactive)
CCOC(=O)[C@@]12CCC(C1=O)[C@](C)(O)C[C@@H]2c1ccccc1 | 50.4 µM (inactive) | 39.2 µM (inactive) | 57.1 µM (inactive) | 71.1 µM (inactive) | 29.2 µM (inactive) | 30.4 µM (inactive) | 48.6 µM (inactive) | 27.7 µM (inactive) |  | 36.5 µM (inactive) | > 100 µM (inactive) | 80.9 µM (inactive) | 54.8 µM (inactive) |  | 32.7 µM (inactive) | 35.2 µM (inactive) | 29.1 µM (inactive) | 33 µM (inactive) | 75 µM (inactive) | 19 µM (inactive)
CCCC(=O)Oc1cc(OC(=O)CCC)c2c(C)cc(=O)oc2c1 | 92.9 µM (inactive) |  | > 100 µM (inactive) | > 100 µM (inactive) | 36.5 µM (inactive) | 44.9 µM (inactive) | 40.1 µM (inactive) | > 100 µM (inactive) | 54.5 µM (inactive) | > 100 µM (inactive) | > 100 µM (inactive) | > 100 µM (inactive) | 75.7 µM (inactive) | 32.2 µM (inactive) | 21.8 µM (inactive) | 67.9 µM (inactive) | > 100 µM (inactive) | 52.4 µM (inactive) | 83.6 µM (inactive) | 
O=C1CCCN1C(=O)CS(=O)(=O)c1ccccc1 | > 100 µM (inactive) | > 100 µM (inactive) |  | > 100 µM (inactive) | > 100 µM (inactive) | > 100 µM (inactive) | > 100 µM (inactive) | > 100 µM (inactive) |  | > 100 µM (inactive) | > 100 µM (inactive) | > 100 µM (inactive) | > 100 µM (inactive) | > 100 µM (inactive) |  | > 100 µM (inactive) | > 100 µM (inactive) | > 100 µM (inactive) | > 100 µM (inactive) | > 100 µM (inactive)
COc1cc2cc(C(=O)N3CC(CCl)c4c3cc(NC(=O)OCc3ccc([N+](=O)[O-])cc3)c3ccccc43)[nH]c2c(OC)c1OC (stereo not drawn) | 8.65 µM (inactive) | 0.153 µM (active) | 43 µM (inactive) | 16.3 µM (inactive) | > 54.2 µM (inactive) |  | 38.7 µM (inactive) | 29 µM (inactive) | 36.1 µM (inactive) | 44.9 µM (inactive) | > 100 µM (inactive) | 29.4 µM (inactive) | 1.1 µM (active) | 13.3 µM (inactive) | > 48.6 µM (inactive) | 46.7 µM (inactive) | < 0.01 µM (active) | 20.5 µM (inactive) | > 71.3 µM (inactive) | 
COc1cc(C=O)ccc1Oc1nnnn1-c1ccccc1 | > 100 µM (inactive) | 31.3 µM (inactive) | > 100 µM (inactive) | > 100 µM (inactive) | 86.7 µM (inactive) | 34.7 µM (inactive) | 39.9 µM (inactive) | 31.8 µM (inactive) |  | > 100 µM (inactive) | 50.9 µM (inactive) | > 100 µM (inactive) | 66.2 µM (inactive) | 32.8 µM (inactive) |  | 20.1 µM (inactive) | > 100 µM (inactive) | 34.8 µM (inactive) | > 100 µM (inactive) | > 100 µM (inactive)
CC(C)[Si](OC1=C(C(=O)N(C)c2cccc(Cl)c2)CCCC1)(C(C)C)C(C)C | 4.41 µM (inactive) | 13.2 µM (inactive) | 15.6 µM (inactive) | 17.6 µM (inactive) | 15.3 µM (inactive) | 4.94 µM (inactive) | 17.3 µM (inactive) | 15.1 µM (inactive) | 12.3 µM (inactive) | 16 µM (inactive) | 12.7 µM (inactive) | 10.1 µM (inactive) | 16.8 µM (inactive) | 8.73 µM (inactive) | 17.3 µM (inactive) | 14.1 µM (inactive) | 16.6 µM (inactive) | 10.4 µM (inactive) | 12.5 µM (inactive) | 
